# Experimental data: ChEMBL document CHEMBL4342442, “Usnic Acid Enaminone-Coupled 1,2,3-Triazoles as Antibacterial and Antitubercular Agents” (J Nat Prod, 2020)
# Legend:
# Type in all cases: functional
# [1] = system: Mycobacterium tuberculosis; experiment: Antitubercular activity against Mycobacterium tuberculosis H37Rv assessed as reduction in microbial growth after 7 days by alamar blue assay; conditions: 168 h
# [2] = system: Mycobacterium tuberculosis; experiment: Antitubercular activity against Mycobacterium tuberculosis H37Rv assessed as log reduction in bacterial population at 10 ug/ml under starvation condition after 7 days by MPN assay
# Staphylococcus aureus [3] = experiment: Antibacterial activity against Staphylococcus aureus MTCC 96 assessed as reduction in microbial growth after 24 hrs by CLSI based microdilution method; conditions: MTCC 96, 24 h
# [4] = system: Staphylococcus epidermidis; experiment: Antibacterial activity against Staphylococcus epidermidis assessed as reduction in microbial growth after 24 hrs by CLSI based microdilution method
# Bacillus subtilis [5] = experiment: Antibacterial activity against Bacillus subtilis MTCC 441 assessed as reduction in microbial growth after 24 hrs by CLSI based microdilution method; conditions: MTCC 441, 24 h
# Escherichia coli [6] = experiment: Antibacterial activity against Escherichia coli MTCC 443 assessed as reduction in microbial growth after 24 hrs by CLSI based microdilution method; conditions: MTCC 443, 24 h
# Pseudomonas aeruginosa [7] = experiment: Antibacterial activity against Pseudomonas aeruginosa MTCC 741 assessed as reduction in microbial growth after 24 hrs by CLSI based microdilution method; conditions: MTCC 741, 24 h
# Klebsiella pneumoniae [8] = experiment: Antibacterial activity against Klebsiella pneumoniae MTCC 618 assessed as reduction in microbial growth after 24 hrs by CLSI based microdilution method; conditions: MTCC 618, 24 h
# Staphylococcus aureus [9] = experiment: Antibacterial activity against Staphylococcus aureus MTCC 96 assessed as diameter of zone of inhibition at 200 ug/ml after 24 hrs by agar well diffusion method; conditions: MTCC 96, 24 h, read-out: DIZ
# [10] = system: Staphylococcus epidermidis; experiment: Antibacterial activity against Staphylococcus epidermidis assessed as diameter of zone of inhibition at 200 ug/ml after 24 hrs by agar well diffusion method; conditions: read-out: DIZ
# Bacillus subtilis [11] = experiment: Antibacterial activity against Bacillus subtilis MTCC 441 assessed as diameter of zone of inhibition at 200 ug/ml after 24 hrs by agar well diffusion method; conditions: MTCC 441, 24 h, read-out: DIZ
# Escherichia coli [12] = experiment: Antibacterial activity against Escherichia coli MTCC 443 assessed as diameter of zone of inhibition at 200 ug/ml after 24 hrs by agar well diffusion method; conditions: MTCC 443, 24 h, read-out: DIZ
# Pseudomonas aeruginosa [13] = experiment: Antibacterial activity against Pseudomonas aeruginosa MTCC 741 assessed as diameter of zone of inhibition at 200 ug/ml after 24 hrs by agar well diffusion method; conditions: MTCC 741, 24 h, read-out: DIZ
# Klebsiella pneumoniae [14] = experiment: Antibacterial activity against Klebsiella pneumoniae MTCC 618 assessed as diameter of zone of inhibition at 200 ug/ml after 24 hrs by agar well diffusion method; conditions: MTCC 618, 24 h, read-out: DIZ
smiles,measurement,setting,value
CC(=O)c1c(O)c(C)c(O)c2c1OC1=CC(=O)/C(=C(/C)NCc3cn(CC(=O)c4cccc5ccccc45)nn3)C(=O)C12C (centres undefined),MIC,[1],42.2 µM
CO[C@H]1/C=C/O[C@@]2(C)Oc3c(C)c(O)c4c(O)c(c(/C=N/N5CCN(C)CC5)c(O)c4c3C2=O)NC(=O)/C(C)=C\C=C\[C@H](C)[C@H](O)[C@@H](C)[C@@H](O)[C@@H](C)[C@H](OC(C)=O)[C@@H]1C [RIFAMPIN],MIC,[1],0.6 µM
same,FC,[2],1.8
CC(=O)c1c(O)c(C)c(O)c2c1OC1=CC(=O)/C(=C(/C)NCc3cn(CC(=O)c4ccc(Cl)c(Cl)c4)nn3)C(=O)C12C (centres undefined),MIC,[1],40.9 µM
CC(=O)C1=C(O)C=C2Oc3c(C(C)=O)c(O)c(C)c(O)c3C2(C)C1=O (centres undefined),MIC,[1],35.6 µM
COc1cccc(C(=O)Cn2cc(CN/C(C)=C3\C(=O)C=C4Oc5c(C(C)=O)c(O)c(C)c(O)c5C4(C)C3=O)nn2)c1 (centres undefined),MIC,[1],43.7 µM
CC(=O)c1c(O)c(C)c(O)c2c1OC1=CC(=O)/C(=C(/C)NCc3cn(CC(=O)c4ccc(C(F)(F)F)cc4)nn3)C(=O)C12C (centres undefined),MIC,[1],41 µM
CC[C@@H](CO)NCCN[C@@H](CC)CO [ETHAMBUTOL],MIC,[1],7.6 µM
CC(=O)c1c(O)c(C)c(O)c2c1OC1=CC(=O)/C(=C(/C)NCc3cn(CC(=O)N4CCN(c5ccc(C(F)(F)F)cc5)CC4)nn3)C(=O)C12C (centres undefined),MIC,[1],36 µM
CC(=O)c1c(O)c(C)c(O)c2c1OC1=CC(=O)/C(=C(/C)NCc3cn(CC(=O)N4CCN(c5ccccc5Cl)CC4)nn3)C(=O)C12C (centres undefined),MIC,[1],37.8 µM
same,MIC,Staphylococcus aureus [3],> 350 µM
same,MIC,[4],> 350 µM
same,MIC,Bacillus subtilis [5],302 µM
same,MIC,Escherichia coli [6],> 350 µM
same,MIC,Pseudomonas aeruginosa [7],> 350 µM
same,MIC,Klebsiella pneumoniae [8],> 350 µM
CC(=O)c1c(O)c(C)c(O)c2c1OC1=CC(=O)/C(=C(/C)NCc3cn(CC(=O)N4CCN(c5ccccn5)CC4)nn3)C(=O)C12C (centres undefined),MIC,[1],39.8 µM
CC(=O)c1c(O)c(C)c(O)c2c1OC1=CC(=O)/C(=C(/C)NCc3cn(CC(=O)c4ccc([N+](=O)[O-])cc4)nn3)C(=O)C12C (centres undefined),MIC,[1],42.6 µM
CC1(C)S[C@@H]2[C@H](NC(=O)Cc3ccccc3)C(=O)N2[C@H]1C(=O)O [PENICILLIN G],zone of inhibition at 200 µg/mL,Staphylococcus aureus [9],28 mm
same,zone of inhibition at 200 µg/mL,[10],26 mm
same,zone of inhibition at 200 µg/mL,Bacillus subtilis [11],28 mm
same,zone of inhibition at 200 µg/mL,Escherichia coli [12],24 mm
same,zone of inhibition at 200 µg/mL,Pseudomonas aeruginosa [13],23 mm
same,zone of inhibition at 200 µg/mL,Klebsiella pneumoniae [14],25 mm
same,MIC,Staphylococcus aureus [3],3.5 µM
same,MIC,[4],7 µM
same,MIC,Bacillus subtilis [5],3.5 µM
same,MIC,Escherichia coli [6],27.8 µM
same,MIC,Pseudomonas aeruginosa [7],27.8 µM
same,MIC,Klebsiella pneumoniae [8],27.8 µM
CC(=O)c1c(O)c(C)c(O)c2c1OC1=CC(=O)/C(=C(/C)NCc3cn(CC(=O)c4ccc(Br)s4)nn3)C(=O)C12C (centres undefined),MIC,[1],39.8 µM
CC(=O)c1c(O)c(C)c(O)c2c1OC1=CC(=O)/C(=C(/C)NCc3cn(CC(=O)N4CCN(C/C=C/c5ccccc5)CC4)nn3)C(=O)C12C (centres undefined),MIC,[1],37.5 µM
COc1c(N2C[C@@H]3CCCN[C@@H]3C2)c(F)cc2c(=O)c(C(=O)O)cn(C3CC3)c12 [MOXIFLOXACIN],FC,[2],2
COc1ccc2cc(C(=O)Cn3cc(CN/C(C)=C4\C(=O)C=C5Oc6c(C(C)=O)c(O)c(C)c(O)c6C5(C)C4=O)nn3)ccc2c1 (centres undefined),MIC,[1],40.2 µM
NNC(=O)c1ccncc1 [ISONIAZID],MIC,[1],2.9 µM
same,FC,[2],1.5
CC(=O)c1c(O)c(C)c(O)c2c1OC1=CC(=O)/C(=C(/C)NCc3cn(CC(=O)c4ccc(OC(F)(F)F)cc4)nn3)C(=O)C12C (centres undefined),MIC,[1],39.9 µM
CC(=O)c1c(O)c(C)c(O)c2c1OC1=CC(=O)/C(=C(/C)NCc3cn(CC(=O)c4ccccc4)nn3)C(=O)C12C (centres undefined),MIC,[1],46.1 µM
CC(=O)c1c(O)c(C)c(O)c2c1OC1=CC(=O)/C(=C(/C)NCc3cn(CC(=O)c4ccc(Cl)s4)nn3)C(=O)C12C (centres undefined),MIC,[1],42.9 µM
